In brackets after ≈: the same amount, converted by molar mass. Several values for one entry are separate records, joined by “and”; a condition that tells them apart may be missing. Equal values may be shown once. Read-outs that look alike come from different tables or passages of the source.
Assays:
Format in all cases: cell-based
[1] = system: Mycobacterium tuberculosis H37Rv; assay: Low oxygen recovery assay; conditions: Mycobacterium tuberculosis, H37RV, read-out: LORA MIC
[2] = system: Mycobacterium tuberculosis H37Rv; assay: Alamar blue metabolic readout assay; conditions: for MIC: Mycobacterium tuberculosis, H37RV, read-out: 7H12 MIC; for 7H12 MIC: M. tuberculosis H37Rv
[3] = system: Mycobacterium tuberculosis H37Rv; assay: Alamar blue metabolic readout assay; conditions: for GAS MIC: M. tuberculosis H37Rv; for MIC: Mycobacterium tuberculosis, H37RV, read-out: GAS MIC
[4] = system: VERO cells (kidney epithelial cells); assay: Toxicity against VERO cells
[5] = system: Mycobacterium tuberculosis H37Rv; assay: Alamar blue assay, MIC stated as range over GAS and 7H12 media; conditions: for MIC (range over both media): H37Rv
[6] = Chlorocebus sabaeus, Vero, read-out: Vero IC50, toxicity against Vero cells

[2H]c1c(C([2H])([2H])[2H])c([2H])n2c(C(=O)NCc3ccc(F)cc3)c(C)nc2c1[2H] [Compound 29, N-(4-Fluorobenzyl)-2-methyl-6-(methyl-d3)imidazo[1,2-a]pyridine-5,7,8-d3–3-carboxamide]
MIC [1]: > 10 µM
MIC [2]: 0.11 ± 0.0118 µM (≈ 33.4 ng/mL)
GAS MIC ([3]; GAS media): 0.0233 ± 0.0005 µM
MIC [3]: 0.0233 µM (≈ 7.07 ng/mL)
IC50 [4, 6]: > 10 µM

[2H]c1c(C([2H])([2H])[2H])c([2H])n2c(C(=O)NCc3ccc(Cl)cc3)c(C)nc2c1[2H] [Compound 31, N-(4-Chlorobenzyl)-2-methyl-6-(methyl-d3)imidazo[1,2-a]pyridine-5,7,8-d3-3-carboxamide]
MIC [1]: 7.09 µM (≈ 2270 ng/mL)
7H12 MIC ([2]; 7H12 media): 0.0231 ± 0.0071 µM
MIC [2]: 0.0231 µM (≈ 7.39 ng/mL)
GAS MIC ([3]; GAS media): 0.012 ± 0.0015 µM
MIC [3]: 0.012 µM (≈ 3.84 ng/mL)
IC50 [4, 6]: > 10 µM

[2H]c1c(C([2H])([2H])[2H])c([2H])n2c(C(=O)NCc3ccc(S(F)(F)(F)(F)F)cc3)c(C)nc2c1[2H] [Compound 32, 2-Methyl-6-(methyl-d3)-N-(4-(pentafluoro-λ^6-sulfaneyl)benzyl) imidazo[1,2-a]pyridine-5,7,8-d3-3-carboxamide]
7H12 MIC ([2]; 7H12 media): 0.0059 µM and 0.0059 ± 0.0003 µM
MIC (range over both media) [5]: 0.003 to 0.006 µM
GAS MIC ([3]; GAS media): 0.0029 µM and 0.0029 ± 0.0005 µM

[2H]c1c(C([2H])([2H])[2H])c([2H])n2c(C(=O)NCc3ccc(S(C)(=O)=O)cc3)c(C)nc2c1[2H] [Compound 33, 2-Methyl-6-(methyl-d3)-N-(4-(methylsulfonyl)benzyl)imidazo[1,2-a]pyridine-5,7,8-d3-3-carboxamide]
MIC [1]: > 10 µM
MIC [2]: 0.212 ± 0.0282 µM (≈ 77.1 ng/mL)
MIC (range over both media) [5]: 0.174 to 0.212 µM
MIC [3]: 0.174 ± 0.0269 µM (≈ 63.2 ng/mL)
IC50 [4, 6]: > 10 µM

[2H]c1c(C([2H])([2H])[2H])c([2H])n2c(C(=O)NCc3ccc(OC(F)(F)F)cc3)c(C)nc2c1[2H] [Compound 34, 2-Methyl-6-(methyl-d3)-N-(4-(trifluoromethoxy)benzyl)imidazo [1,2-a]pyridine-5,7,8-d3-3-carboxamide]
MIC [1]: > 5 µM
7H12 MIC ([2]; 7H12 media): 0.0055 ± 0.0018 µM
MIC [2]: 0.0055 µM (≈ 2.03 ng/mL)
GAS MIC ([3]; GAS media): 0.0022 ± 0.0004 µM
MIC [3]: 0.0022 µM (≈ 0.813 ng/mL)
IC50 [4, 6]: > 50 µM

[2H]c1c(C([2H])([2H])[2H])c([2H])n2c(C(=O)NCc3ccc(OC)cc3)c(C)nc2c1[2H] [Compound 37, N-(4-Methoxybenzyl)-2-methyl-6-(methyl-d3)imidazo[1,2-a] pyridine-5,7,8-d3-3-carboxamide]
MIC [1]: > 10 µM
7H12 MIC ([2]; 7H12 media): 0.0354 ± 0.01 µM
MIC [2]: 0.0354 µM (≈ 11.2 ng/mL)
GAS MIC ([3]; GAS media): 0.0245 ± 0.0005 µM
MIC [3]: 0.0245 µM (≈ 7.73 ng/mL)
IC50 [4, 6]: > 10 µM

[2H]c1c(C([2H])([2H])[2H])c([2H])n2c(C(=O)NCc3ccc(OCC)cc3)c(C)nc2c1[2H] [Compound 38, N-(4-Ethoxybenzyl)-2-methyl-6-(methyl-d3)imidazo[1,2-a] pyridine-5,7,8-d3-3-carboxamide]
MIC [2]: 0.0236 ± 0.0104 µM (≈ 7.77 ng/mL)
GAS MIC ([3]; GAS media): 0.0092 ± 0.0013 µM
MIC [3]: 0.0092 µM (≈ 3.03 ng/mL)

[2H]c1c(C([2H])([2H])[2H])c([2H])n2c(C(=O)NCc3ccc4c(c3)CCCO4)c(C)nc2c1[2H] [Compound 39, N-(Chroman-6-ylmethyl)-2-methyl-6-(methyl-d3)imidazo[1,2-a] pyridine-5,7,8-d3-3-carboxamide]
7H12 MIC ([2]; 7H12 media): 0.0072 ± 0.0004 µM
MIC [2]: 0.0072 µM (≈ 2.46 ng/mL)
GAS MIC ([3]; GAS media): 0.0225 ± 0.0018 µM
MIC [3]: 0.0225 µM (≈ 7.68 ng/mL)

[2H]c1c(C([2H])([2H])[2H])c([2H])n2c(C(=O)NCc3ccc4c(c3)OCCO4)c(C)nc2c1[2H] [Compound 40, N-((2,3-Dihydrobenzo[b][1,4]dioxin-6-yl)methyl)-2-methyl-6-(methyl-d3)imidazo[1,2-a]pyridine-5,7,8-d3-3-carboxamide]
7H12 MIC ([2]; 7H12 media): 0.0051 ± 0.0016 µM
MIC [2]: 0.0051 µM (≈ 1.75 ng/mL)
GAS MIC ([3]; GAS media): 0.0101 ± 0.001 µM
MIC [3]: 0.0101 µM (≈ 3.47 ng/mL)

[2H]c1c(C([2H])([2H])[2H])c([2H])n2c(C(=O)NCc3cccc(Cl)c3)c(C)nc2c1[2H] [Compound 41, N-(3-Chlorobenzyl)-2-methyl-6-(methyl-d3)imidazo[1,2-a] pyridine-5,7,8-d3-3-carboxamide]
MIC [1]: 4.52 µM (≈ 1450 ng/mL)
7H12 MIC ([2]; 7H12 media): 0.0222 ± 0.0057 µM
MIC [2]: 0.0222 µM (≈ 7.1 ng/mL)
GAS MIC ([3]; GAS media): 0.0035 ± 0.0003 µM
MIC [3]: 0.0035 µM (≈ 1.12 ng/mL)
IC50 [4, 6]: > 10 µM

[2H]c1c(C([2H])([2H])[2H])c([2H])n2c(C(=O)NCc3ccccc3Cl)c(C)nc2c1[2H] [Compound 42, N-(2-Chlorobenzyl)-2-methyl-6-(methyl-d3)imidazo[1,2-a] pyridine-5,7,8-d3-3-carboxamide]
MIC [1]: 8.49 µM (≈ 2720 ng/mL)
7H12 MIC ([2]; 7H12 media): 0.112 ± 0.0195 µM
MIC [2]: 0.112 µM (≈ 35.8 ng/mL)
GAS MIC ([3]; GAS media): 0.0134 ± 0.0022 µM
MIC [3]: 0.0134 µM (≈ 4.29 ng/mL)
IC50 [4, 6]: > 10 µM

[2H]c1c(C([2H])([2H])[2H])c([2H])n2c(C(=O)NCc3cccc(OC(F)(F)F)c3)c(C)nc2c1[2H] [Compound 43, 2-Methyl-6-(methyl-d3)-N-(3-(trifluoromethoxy)benzyl)imidazo [1,2-a]pyridine-5,7,8-d3-3-carboxamide]
MIC [1]: 4.92 µM (≈ 1820 ng/mL)
fold less active than 30 ([2]; 7H12 media, MIC ratio versus compound 30 (printed as 4-OCF3 para)): > 28 fold
MIC [2]: 0.108 ± 0.0074 µM (≈ 39.9 ng/mL)
fold less active than 30 ([3]; GAS media, MIC ratio versus compound 30 (printed as 4-OCF3 para)): ~ 2.9 fold
MIC [3]: 0.0263 ± 0.0036 µM (≈ 9.71 ng/mL)
IC50 [4, 6]: > 10 µM

[2H]c1c(C([2H])([2H])[2H])c([2H])n2c(C(=O)NCc3cccc(OC)c3)c(C)nc2c1[2H] [Compound 45, N-(3-Methoxybenzyl)-2-methyl-6-(methyl-d3)imidazo[1,2-a] pyridine-5,7,8-d3-3-carboxamide]
fold less active than 37 ([2]; 7H12 media, MIC ratio versus para isomer 37): 3 fold
7H12 MIC ([2]; 7H12 media): 0.105 ± 0.0191 µM
MIC [2]: 0.105 µM (≈ 33.1 ng/mL)
GAS MIC ([3]; GAS media): 0.0205 ± 0.0004 µM
MIC [3]: 0.0205 µM (≈ 6.47 ng/mL)

[2H]c1c(C([2H])([2H])[2H])c([2H])n2c(C(=O)NCc3cc(F)cc(F)c3)c(C)nc2c1[2H] [Compound 46, N-(3,5-Difluorobenzyl)-2-methyl-6-(methyl-d3)imidazo[1,2-a] pyridine-5,7,8-d3-3-carboxamide]
MIC [1]: 6.91 µM (≈ 2220 ng/mL)
7H12 MIC ([2]; 7H12 media): 0.0124 ± 0.0045 µM
MIC [2]: 0.0124 µM (≈ 3.98 ng/mL)
MIC (range over both media) [5]: 0.007 to 0.012 µM
GAS MIC ([3]; GAS media): 0.0072 ± 0.0016 µM
MIC [3]: 0.0072 µM (≈ 2.31 ng/mL)
IC50 [4, 6]: > 10 µM

[2H]c1c(C([2H])([2H])[2H])c([2H])n2c(C(=O)NCc3cc(Cl)cc(Cl)c3)c(C)nc2c1[2H] [Compound 47, N-(3,5-Dichlorobenzyl)-2-methyl-6-(methyl-d3)imidazo[1,2-a] pyridine-5,7,8-d3-3-carboxamide]
MIC [1]: 8.87 µM (≈ 3140 ng/mL)
7H12 MIC ([2]; 7H12 media): 0.04 ± 0.013 µM
MIC [2]: 0.04 µM (≈ 14.2 ng/mL)
fold less active than 46 ([5]; versus 46 (3,5-difluoro)): > 2 fold
GAS MIC ([3]; GAS media): 0.0188 ± 0.0028 µM
MIC [3]: 0.0188 µM (≈ 6.66 ng/mL)
IC50 [4, 6]: > 10 µM

Cc1ccc2nc(C)c(C(=O)NCc3ccc(C(F)(F)F)cc3)n2c1 [Compound 57, 2,6-Bis(Methyl-d3)-N-((4-(trifluoromethyl)phenyl)methyl-d2) imidazo[1,2-a]pyridine-7,8-d2-3-carboxamide]
IC50 ([4]; read-out: Vero IC50, toxicity against Vero cells): > 50 µM

CCc1nc2ccc(Cl)cn2c1C(=O)NCc1ccc(N2CCC(c3ccc(OC(F)(F)F)cc3)CC2)cc1 [Compound Q203, Telacebec, reference compound]
MIC [1]: > 5 µM
7H12 MIC ([2]; 7H12 media): 0.0036 ± 0.0005 µM
MIC [2]: 0.0036 µM (≈ 2.01 ng/mL)
GAS MIC ([3]; GAS media): 0.0009 ± 0.0004 µM
MIC [3]: 0.0009 µM (≈ 0.501 ng/mL)

Reference: paper PMC10262914 (Bioorganic chemistry, 2022)
